Here are results for 2 compounds from article PMC5471521, “Novel selective β1-adrenoceptor antagonists for concomitant cardiovascular and respiratory disease” (The FASEB Journal, 2017).

Each structure is given as a SMILES string. Read-outs that look alike come from different tables or passages of the source.

The target in one data set is T1, rat β1-AR (Rattus norvegicus, UniProt P18090).
T1 construct: host or cells: CHO cells, transient transfection
Kind of data set: 3H-CGP12177 whole-cell binding in transiently transfected CHO cells. The note with it: for Rat β1 vs. β2 selectivity Kd,ratβ2/Kd,ratβ1: from 3H-CGP12177 whole-cell binding; for Kd: transiently transfected CHO cells, mean ± SEM, read-out: Rat β1-AR Log Kd (converted). Here is the method:
(§1) Human bronchial smooth muscle cells were obtained from Lonza (Basel, Switzerland) and grown in manufacturer media. Rat β-AR binding experiments (DNA from cDNA Resource Centre, Bloomsburg, PA, USA) were conducted by using transiently transfected CHO cells ([44]).
(§2) Propranolol (10 μM) defined nonspecific binding. Kd values were derived from IC50 values by using the Cheng-Prusoff equation as previously described ([11]).

The target in a further data set is T2, rat β2-AR (Rattus norvegicus, UniProt P10608).
T2 construct: host or cells: CHO cells, transient transfection
The data set is described as above. As to conditions: transiently transfected CHO cells, mean ± SEM; cells marked ^a are apparent log Kd; read-out: Rat β2-AR Log Kd (converted). How it is done: as §1, §2

The next data set concerns the target T3, human β2-AR (Homo sapiens, UniProt P07550).
T3 construct: expressed in transfected cells
Description: Antagonism of cimaterol-induced 3H-cAMP accumulation in CHO-β2 cells. The note with it: cimaterol agonist, mean ± SEM, read-out: Log Kd,β2 (converted). The data set is classed as cell-based. How it is done:
(§3) Confluent cells were examined (24-well plates, 5 h incubation at 37°C) as described in Baker ([45]). Antagonist Kd values were calculated from a rightward shift of the agonist concentration response curve by using the Gaddum equation as previously described ([46]).
In general terms: Cyclic AMP is a second messenger, typically raised through Gs and lowered through Gi signalling.

Data set [1] deals with T4, native β2-AR in human bronchial smooth muscle cells (Homo sapiens, UniProt P07550).
T4 construct: human bronchial smooth muscle cells (that natively express β2-AR); host or cells: human bronchial smooth muscle cells
Description: Antagonism of cimaterol-induced 3H-cAMP accumulation in human bronchial smooth muscle cells. It counts as cell-based. As to conditions: cimaterol agonist, mean ± SEM. How it is done: Human bronchial smooth muscle cells were obtained from Lonza (Basel, Switzerland) and grown in manufacturer media. Rat β-AR binding experiments (DNA from cDNA Resource Centre, Bloomsburg, PA, USA) were conducted by using transiently transfected CHO cells ([44]). […] Antagonist Kd values were calculated from a rightward shift of the agonist concentration response curve by using the Gaddum equation as previously described ([46]).

The target of another data set is T5, human β1-AR (Homo sapiens, UniProt P08588).
T5 construct: expressed in transfected cells
Kind of data set: 3H-cAMP accumulation agonist response in CHO-β1 cells. As to conditions: agonist mode. The data set is classed as cell-based. Here is the method: as §3

Data set [2] in a line: Lipophilicity (chromatographic logD). The note with it: octanol/water, estimated from chromatographic retention. It counts as physicochemical. Here is the method: Octanol–water partition coefficient values (logD) of NDD-713 and -825 were estimated as described in Lombardo et al. ([49]) by correlation of the chromatographic retention properties of compounds against the characteristics of standard compounds with known partition coefficient values. Studies were carried out by CDCO.

A short description of data set [3]: Protein binding by ultracentrifugation, rat plasma. It counts as in vitro ADME. As to conditions: male, Sprague-Dawley, read-out: fu rat plasma. Here is the method: (§4) Protein binding of 1 µM NDD-713.HCl and -825.HCl in human and rat plasma, as well as human liver microsomes, was assessed by using the ultracentrifugation technique. Frozen human plasma (Australian Red Cross Blood Service, Melbourne, VIC, Australia) and rat plasma (male Sprague-Dawley rats; Charles River, Margate, Kent, United Kingdom) were thawed at 37°C. Human liver microsomes (XenoTech) were suspended in 0.1 M phosphate buffer (pH 7.4) at protein concentrations of 0.4 mg/ml. Samples were collected immediately as stability reference controls. Spiked plasma samples (but not microsome samples) were incubated at 37°C for 1 h. […] NDD-713.HCl and -825.HCl concentrations of noncentrifuged matrix and protein-free supernatant were determined by UPLC-MS relative to calibration standards prepared in the respective matrices. Total concentration (Ctotal) was the average measured concentration in […] samples maintained at 37°C, and unbound concentration (Cunbound) was the average measured concentration in protein-free supernatants from centrifuged samples (n = 3). The compound unbound fraction (fu) was calculated: fu = Cunbound/Ctotal. Compound degradation was assessed by comparing concentrations in noncentrifuged plasma samples that were incubated at 37°C with concentrations measured in the t = 0 noncentrifuged samples. […]

The nature of data set [4]: Protein binding by ultracentrifugation, human liver microsomes. The data set is classed as in vitro ADME. As to conditions: pH 7.4, 0.4 mg/ml protein, read-out: fu human liver microsomes. How it is done: as §4
On the technique in general: Liver microsomes are vesicles of endoplasmic reticulum, rich in cytochrome P450 enzymes.

The subject of data set [5] is HR (β1) and HQC (β2) in conscious rats. Description: In vivo β1- vs. β2-selectivity, oral administration, conscious rats (isoprenaline responses). Further details: species or system rat. The note with it: for Effect on basal and isoprenaline-stimulated HR after oral gavage: lightly sedated rats dosed by oral gavage, measured once fully recovered. How it is done:
Adult male Sprague-Dawley rats, weighing 300−400 g, were chronically instrumented with pulsed Doppler flow probes and intravascular catheters for cardiovascular monitoring and drug administration in a 2-stage surgical protocol as described ([51]). Surgery was performed under general anesthesia (fentanyl and medetomidine, 300 μg/kg of each, i.p.), with reversal and postoperative analgesia provided by atipamezole (1 mg/kg, s.c.) and buprenorphine (0.02 mg/kg, s.c.). Experiments were performed with animals that were fully conscious and unrestrained in home cages and given free access to food and water. Cardiovascular variables were recorded by using a customized, computer-based system (Instrument Development Engineering Evaluation, Maastrich Instruments Bv, Maastrich, The Netherlands) with raw data sampled every 2 ms. Hindquarters vascular conductance (HQC) was calculated as Doppler shift (flow)/mean arterial pressure.
Experiments ran over 3 consecutive days. Lightly sedated rats (propofol at 0.1–0.2 ml of 10 mg/ml, i.v.) that were instrumented for cardiovascular monitoring were administered an oral dose of NDD-825.HCl (1 mg/kg on d 1, 3 mg/kg on d 2, 10 mg/kg on d 3; 10 ml/kg in water) by oral gavage. Each day, responses to isoprenaline infusions were monitored before and at 0.5–1.5 and 3–4 h after oral NDD-825.HCl administration.
Isoprenaline responses shown are absolute values for HR and HQC before the first dose of isoprenaline (baseline) and during the third minute of infusion of each dose. Values at baseline and during the highest isoprenaline dose were tested for statistical significance by using a nonparametric ANOVA test with correction for repeat measures [Quade test ([52])]. A value of P < 0.05 was taken as significant.

Setting [6] is: pH 3, chromatographic estimate, read-out: Distribution coefficient, pH 3 (gLogDpH 3).
Setting [7] is: pH 7.4, chromatographic estimate, read-out: Distribution coefficient, pH 7.4 (gLogDpH 7.4).

T1 sequence (P18090 whole entry): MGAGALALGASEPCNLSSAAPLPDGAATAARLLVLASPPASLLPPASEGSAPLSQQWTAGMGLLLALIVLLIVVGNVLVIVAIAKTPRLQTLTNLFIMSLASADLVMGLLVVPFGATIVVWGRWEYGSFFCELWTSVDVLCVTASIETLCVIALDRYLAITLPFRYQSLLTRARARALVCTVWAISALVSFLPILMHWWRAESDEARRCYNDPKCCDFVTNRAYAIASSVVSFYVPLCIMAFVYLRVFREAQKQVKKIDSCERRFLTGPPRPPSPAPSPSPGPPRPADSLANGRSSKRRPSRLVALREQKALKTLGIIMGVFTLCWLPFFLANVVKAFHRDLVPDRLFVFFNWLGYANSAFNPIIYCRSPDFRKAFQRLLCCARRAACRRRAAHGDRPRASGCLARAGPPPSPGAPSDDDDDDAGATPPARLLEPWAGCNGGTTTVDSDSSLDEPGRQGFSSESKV
T3 sequence (P07550 whole entry): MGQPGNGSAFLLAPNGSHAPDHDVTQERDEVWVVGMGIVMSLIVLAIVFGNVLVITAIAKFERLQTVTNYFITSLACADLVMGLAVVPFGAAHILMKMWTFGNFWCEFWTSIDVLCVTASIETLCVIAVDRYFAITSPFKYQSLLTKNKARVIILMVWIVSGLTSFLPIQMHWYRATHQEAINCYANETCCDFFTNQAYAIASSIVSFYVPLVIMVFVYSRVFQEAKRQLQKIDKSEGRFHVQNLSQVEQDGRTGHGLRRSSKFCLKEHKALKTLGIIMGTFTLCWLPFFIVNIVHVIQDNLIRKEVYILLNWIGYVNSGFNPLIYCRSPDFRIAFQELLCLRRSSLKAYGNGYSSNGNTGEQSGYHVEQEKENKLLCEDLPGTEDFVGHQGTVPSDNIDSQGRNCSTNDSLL
T4 sequence (P07550 whole entry): as above
T5 sequence (P08588 whole entry): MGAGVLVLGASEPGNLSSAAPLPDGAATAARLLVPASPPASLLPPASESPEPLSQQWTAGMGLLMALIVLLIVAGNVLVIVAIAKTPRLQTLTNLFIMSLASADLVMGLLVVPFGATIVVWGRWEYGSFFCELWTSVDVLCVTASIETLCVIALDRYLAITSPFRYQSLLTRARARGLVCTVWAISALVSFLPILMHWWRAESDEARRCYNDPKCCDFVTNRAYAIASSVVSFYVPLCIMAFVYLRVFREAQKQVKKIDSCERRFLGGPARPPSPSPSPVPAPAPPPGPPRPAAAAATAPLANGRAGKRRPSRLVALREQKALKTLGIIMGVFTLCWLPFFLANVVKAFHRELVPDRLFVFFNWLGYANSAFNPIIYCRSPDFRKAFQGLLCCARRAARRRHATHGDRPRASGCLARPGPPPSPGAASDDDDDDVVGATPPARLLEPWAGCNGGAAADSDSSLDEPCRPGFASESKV
T2 sequence (P10608 whole entry): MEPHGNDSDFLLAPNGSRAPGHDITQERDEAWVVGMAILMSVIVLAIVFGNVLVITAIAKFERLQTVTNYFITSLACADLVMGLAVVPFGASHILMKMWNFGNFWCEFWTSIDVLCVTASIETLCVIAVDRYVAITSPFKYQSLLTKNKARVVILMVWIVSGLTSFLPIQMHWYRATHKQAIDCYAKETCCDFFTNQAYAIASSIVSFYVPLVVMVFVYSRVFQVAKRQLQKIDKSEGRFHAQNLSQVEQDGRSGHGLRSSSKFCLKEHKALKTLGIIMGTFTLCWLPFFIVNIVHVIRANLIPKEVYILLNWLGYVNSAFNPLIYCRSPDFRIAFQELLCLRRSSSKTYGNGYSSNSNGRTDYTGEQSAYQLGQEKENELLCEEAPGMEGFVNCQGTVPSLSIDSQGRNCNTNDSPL

On to `NC(=O)c1ccc(OCCNC[C@H](O)COc2ccc3c(c2)OC[C@@H](COCC2CC2)O3)cc1` [NDD-713], for which the “Rat β1 vs. β2 selectivity Kd,ratβ2/Kd,ratβ1” value on rat β1-AR came out at 2188. The Kd at rat β1-AR was 8.51 nM; on rat β2-AR, 18600 nM; at human β2-AR, 3630 nM; in data set [1], 3390 nM. Further, the “Maximum 3H-cAMP response relative to isoprenaline” value on human β1-AR was “No ^3H-cAMP responses were observed”. In addition, the values for the chromatographic logD in [2] (setting [6]) and in [2] (setting [7]) were 1.7 and 2.3, respectively. Further, the fraction unbound at 1 h, 1 µM in [3] came to 0.16. For the same compound, the fraction unbound at 4.2 h, 1 µM in data set [4] worked out at 0.67. For the same compound, the “Effect on basal and isoprenaline-stimulated HR after oral gavage” value in data set [5] was “caused a reduction of basal and isoprenaline-stimulated HR”.
Take `O=C1NCc2cc(OCCNC[C@H](O)COc3ccc4c(c3)OC[C@@H](COCC3CC3)O4)ccc21` [NDD-825]: the “Rat β1 vs. β2 selectivity Kd,ratβ2/Kd,ratβ1” value at rat β1-AR was determined as 3090. Moreover, the Kd is 4.27 nM at rat β1-AR, 13200 nM on rat β2-AR, 1780 nM at human β2-AR and 1350 nM in data set [1]. In addition, the “Maximum 3H-cAMP response relative to isoprenaline” value on human β1-AR is given as “No ^3H-cAMP responses were observed”. In addition, the figures for the chromatographic logD in data set [2] (setting [6]) and in [2] (setting [7]) were 1.5 and 2, respectively. Also, the fraction unbound at 1 h, 1 µM in data set [3] is 0.11. Besides, the fraction unbound at 4.2 h, 1 µM in [4] came out at 0.63. Moreover, the “Effect on basal HR” value in data set [5] (conscious rats, oral gavage 1 mg/kg (d 1), n = 3) is recorded as “small but significant lowering of basal HR”. Also, the “Lowering of basal HR and reduction in isoprenaline-stimulated HR” value in data set [5] (conscious rats, oral gavage 3 and 10 mg/kg on subsequent days, compared with 1 mg/kg) is “more pronounced”. Besides, the “Changes in HQC responses to isoprenaline” value in [5] (conscious rats, oral gavage, any dose level (1, 3, 10 mg/kg)) was “No significant changes”. For the same compound, the “Effect on basal and isoprenaline-stimulated HR after oral gavage” value in data set [5] is “caused a reduction of basal and isoprenaline-stimulated HR”.
